Entries after “also recorded” stand apart in the source; their conditions may differ.

The test system of data set [1] is Bcl-2, Mcl-1, Bcl-XL expression in HL-60 cells. Kind of data set: RT-PCR and Western blot of anti-apoptotic proteins in HL-60 cells. On the set-up: transcription of Bcl-2: dose or concentration left out as unconfirmed. In kind it is cell-based, human. On the procedure: Total RNA was isolated using the Aurum RNA Isolation Mini Kit, and the iScript cDNA Synthesis Kit was used to prepare samples for qPCR (Bio-Rad). PCR was performed on the CFX384 Real-Time System (Bio-Rad) and results were analyzed using the Livak method. For analysis of RNA-seq data as target genes of known transcription factors, a curated list of all human target genes was extracted from the TRANSFAC Pro database.
Cells were lysed in RIPA buffer (Sigma), and the protein concentrations were determined by BCA assay (Thermo Scientific Pierce). Lysates were solubilized in 6×SDS PAGE buffer and […] of protein was loaded into 6-15% SDS PAGE gels, pheresed, and then transferred onto […] PVDF membrane (Millipore). Primary antibodies were applied at a dilution of 1:1000. Anti-Bcl-2, -Bax, -Mcl-1, -Bcl-XL, -Cyclin A and -Cyclin D1 antibodies were purchased from Cell Signaling Technologies. Anti-total acetylated histone and -ac-H3K27 were purchased from Santa Cruz Biotechnologies. Anti-actin and -CREB antibodies were purchased from upstate. Secondary antibodies were used at a 1:2500 dilution and purchased from Thermo Scientific/Pierce. WesternBright ECL was used for image acquisition on Image Lab software (Bio-Rad).
The balance between pro- and anti-apoptotic protein expression contributes to cell fate decisions. CREB regulates the expression of several anti-apoptotic proteins, including Bcl-2, Bcl-XL and Mcl-1. Bcl-2 expression in particular is known to mediate resistance to chemotherapy and influence clinical outcome in a number of cancer types, including AML. The ability of Compound A to cause apoptosis by disrupting the CREB-driven expression of these anti-apoptotic proteins was examined. In HL-60 cells treated with Compound A, apoptosis is induced in a dose- and time-dependent manner. […] Compound A elicited apoptosis through the intrinsic apoptosis pathway, with activation of Caspase-3 (FIG. 5, panel B) and detectable Caspase-9 cleavage (data not shown). […]

Data set [2] can be described thus: In vivo toxicity in NSG mice not injected with AML cells. On the set-up: species or system mouse. The procedure:
To assess the potential in vivo toxicities of Compound A, four groups of five mice not injected with AML cells were treated with 2.3 mg/kg Compound A intravenously daily, or 20, 40 or 60 mg/kg intraperitoneally (IP) daily for 28 days.

Another data set concerns KG-1 cells. As to the kind of experiment: Cell cycle analysis of synchronized KG-1 cells by flow cytometry. In kind it is cell-based. The procedure:
KG-1 cells were synchronized at prometaphase using a modified thymidine plus nocodazole block (Whitfield et al. identification of genes periodically expressed in the human cell cycle and their expression in tumors. Mol Biol Cell. 2002; 13(6):1977-2000). Briefly, KG-1 cells were treated with 2 mM thymidine for 30 h, washed with PBS and released from G1/S block in fresh media for 4 h. The cells were incubated with 300 nM nocodazole (Sigma) for 13 h. Compound A or DMSO was added 3 hours before release. The synchronized cells were washed with PBS and released from the mitotic block in fresh media containing Compound A or DMSO. To analyze DNA content by flow cytometry, cells were harvested, fixed in 70% ice-cold ethanol for at least 1 hour at −20° C., and then incubated in propidium iodide (PI) staining buffer (PBS containing RNase A (50 μg/ml), 0.1% sodium citrate, and PI ([…])) for 30 minutes at RT. Cells were analyzed on a FACS Calibur flow cytoneter (BD Biosciences). Cell-cycle distribution was determined using FlowJo software (TreeStar).
CREB regulates the cell cycle by virtue of transcriptionally regulating the expression of key cell cycle genes. Thus, the effect of Compound A on this aspect of cell function was also examined. […]
In general terms: In flow cytometry, cells or beads pass a laser one at a time.

For data set [3], the system named is CREB-driven promoter (CRE). Kind of data set: CREB-driven (CRE) luciferase reporter in KG-1 cells. In kind it is cell-based. To be noted: 6 hours. On the procedure: (§1) KG-1 cell lines were created to express luciferase in a CREB-dependent or non-CREB-dependent fashion using lentiviral gene delivery. Cells were sorted for mCherry expression by flow cytometry and selected with puromycin. Luciferase activity was measured on a […] using the Promega Luciferase Activity Kit (Promega) per manufacturer's instructions following six hours of treatment with Compound A or 0.1% DMSO. The split Renilla luciferase complementation assay has been described previously (Li BX, and Xiao X. Discovery of a small-molecule inhibitor of the KIX-KID interaction. Chembiochem: a European journal of chemical biology. 2009; 10(17):2721-4). In this assay, the KID and KIX domains were fused to the N- and C-terminal regions of Renilla luciferase, respectively. Once KIX binds phosphorylated KID, the Renilla luciferase regions were brought together, resulting in luciferase activity.
(§2) To test the ability of Compound A to disrupt CREB-CBP binding in cells, a split Renilla luciferase complementation assay was performed. […] This early timepoint was selected to permit accurate reporter gene activity measurement prior to the onset of anticipated global cell dysfunction or death induced by Compound A. Treatment with 3 μM Compound A reduced luciferase activity by 33.2±7.7% at this timepoint. […] Thus, Compound A inhibits CREB function through disruption of CREB:CBP interaction.

A further data set has as its system CMV-driven promoter. As to the kind of experiment: CMV-driven luciferase reporter in KG-1 cells. In kind it is cell-based. To be noted: 6 hours. The procedure: as §1, §2
Background: In a reporter assay the amount or activity of a reporter protein is the signal.

Setting [4] is: 2.3 mg/kg IV or 20, 40 or 60 mg/kg IP daily, 28 days.

In the case of `N#Cc1ccc(NC(=O)c2cc3ccccc3cc2O)cc1` [Compound A, N-(4-cyanophenyl)-3-hydroxy-2-naphthamide], in data set [1], the Bcl-XL expression result is given as “remained constant” and the “expression of Mcl-1” value is “initially increased, then decreased at 72 hours”. For the same compound, the “transcription of Bcl-2” value in data set [1] (72 hours) was “decreased”. In data set [2] (setting [4]), the “complete blood counts, liver function tests and kidney function tests” value was “no difference; also recorded: normal complete blood counts, liver function tests and kidney function tests”; the tissue histology result is reported as “no evidence of fibrosis or damage; also recorded: no microscopic evidence of vital organ damage”. The animal body weight result in data set [2] (over 28 days) is “no decrease in animal body weight”. Further, the “% cells in G1-phase” value with KG-1 cells (4 hours following release) was 66.20±1.83%. In addition, the “% cells in G1-phase” value in the data set on KG-1 cells (8 hours following release) worked out at 55.41±0.59%. Besides, the “reduction of CREB-driven luciferase activity” value in data set [3] (3 μM) is on record as 33.2±7.7%. Further, the CREB-driven luciferase activity result in data set [3] (KG-1 cells, 3, 10 and 30 μM) is listed as “significantly decreased; also recorded: reduced by Compound A in a dose-dependent fashion”. For the same compound, the CMV-driven luciferase expression entry in the data set on CMV-driven promoter is listed as “unchanged”.

The record behind these values is US20210205292A1, “INHIBITORS OF CREB-CBP INTERACTION FOR TREATMENT OF LEUKEMIA” (The Board of Trustees of the Leland Stanford Junior …, priority 2016, published 2021).
